We go through 4 molecules from patent publication US20180094139A1 (priority 2014, published 2018).

One data set concerns the target BlaC (Mycobacterium tuberculosis, UniProt P9WKD3). Type of data set: biochemical.
For data set [1], the system named is β-lactamase-expressing bacteria. Type of data set: cell-based.
For data set [2], the system named is K. pneumoniae with Class A carbapenemase KPC. Type of data set: cell-based. The following applies: 10^5 c.f.u., probe 10 μM, 3 h incubation.
The nature of data set [3]: Stability of fluorogenic probes in MES buffer (spontaneous hydrolysis). It counts as physicochemical. To be noted: 0.1 M, pH 6.6, room temperature (22° C.).
For data set [4], the system named is E. cloacae with AmpC β-lactamase. It counts as cell-based. The following applies: 10^5 c.f.u., probe 10 μM, 3 h incubation.
Data set [5] concerns penicillinase isolated from Bacillus cereus (Pen). The following applies: probe 10 μM, 3 h incubation with diluted Pen.
Protocol: Data were collected in a 384-well plate with a total volume of 25 μL in each well. Fluorescence was measured with excitation at 490 nm and emission at 535 nm. Relative fluorescence represents the difference in fluorescence intensity with and without β-lactamase incubation. […] Error bars are ±SD.

Sequence of BlaC (P9WKD3 35-307 limits assumed): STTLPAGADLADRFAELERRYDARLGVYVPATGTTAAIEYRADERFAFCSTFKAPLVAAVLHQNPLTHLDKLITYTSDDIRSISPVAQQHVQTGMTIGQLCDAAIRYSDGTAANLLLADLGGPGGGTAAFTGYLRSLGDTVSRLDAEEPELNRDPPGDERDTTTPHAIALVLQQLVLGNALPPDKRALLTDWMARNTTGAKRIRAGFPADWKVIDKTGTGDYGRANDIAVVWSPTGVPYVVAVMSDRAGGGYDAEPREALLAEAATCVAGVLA

With `O=C(Cc1ccccc1)N[C@@H]1C(=O)N2C(C(=O)O)=C(COc3ccc4ccc(=O)oc4c3)C3(CC3)S[C@H]12` [CDC-Cp, (6R,7R)-3-(((2-oxo-2H-chromen-7-yl)oxy)methyl)-7-(2-phenylacetamido)-2-azaspiro[2,1′-cyclopropane]-3-cephem-2-carboxylic acid], the “catalytic efficiency (kcat/Km) for BlaC over TEM-1 Bla” value (from here on “catalytic efficiency … over TEM-1 Bla”) on BlaC is listed as “around 10 fold”.
For `CO[C@@]1(NC(=O)Cc2ccccc2)C(=O)N2C(C(=O)O)=C(COc3ccc4ccc(=O)oc4c3)C3(CC3)S[C@@H]21` [CDC-OMe-Cp, (6R,7S)-7-methoxy-3-(((2-oxo-2H-chromen-7-yl)oxy)methyl)-7-(2-phenylacetamido)-2-azaspiro[2,1′-cyclopropane]-3-cephem-4-carboxylic acid], at BlaC, the “catalytic efficiency … over TEM-1 Bla” value was 6.3×10^4 fold.
For `COc1ccc(-c2c3ccc(=O)cc-3oc3cc(OCc4ccc(OCC5=C(C(=O)O)N6C(=O)[C@@H](NC(=O)Cc7ccccc7)[C@H]6SC5)cc4)ccc23)c(C)c1` [CDG-1], the “fluorescence signal with β-lactamase-expressing bacteria (specificity)” value in data set [1] is “fluorescent signal turn-on with all bacteria”.
For the molecule `COc1ccc(-c2c3ccc(=O)cc-3oc3cc(OCc4ccc(OCC5=C(C(=O)O)N6C(=O)[C@](NC(=O)Cc7ccccc7)(OC)[C@H]6SC5)cc4)ccc23)c(C)c1` [CDG-OMe], in data set [2], the “fluorescent intensity ratio IKPC/IBlaC” value was 1/4. In addition, the spontaneous hydrolysis rate in data set [3] is 1.9e-07 s⁻¹. Moreover, the “catalytic efficiency … over TEM-1 Bla” value on BlaC is 8,900 fold. In data set [4], the “fluorescent intensity ratio of AmpC to BlaC (IAmpC/IBlaC)” value was 1/9. Also, the “activity towards penicillinase (Pen)” value in data set [5] was “some activity”. The “fluorescence signal with β-lactamase-expressing bacteria (specificity)” value in data set [1] is given as “much better selectivity for BlaC over other β-lactamase expressing bacteria”.
